Format in all cases: functional
One assay concerns Staphylococcus aureus. Briefly: Antibacterial activity against Staphylococcus aureus ATCC 6538 after 24 hrs by MTT assay. The settings on record: ATCC 6538, 24 h. (Tetrazolium assays rely on reduction of a dye to a coloured formazan, in cell work by metabolically active cells.)
Another assay concerns Enterobacter cloacae. Briefly: Antibacterial activity against Enterobacter cloacae ATCC 13047 after 24 hrs by MTT assay. To be noted: ATCC 13047, 24 h.
The test system of the next assay is Pseudomonas aeruginosa. Briefly: Antibacterial activity against sPseudomonas aeruginosa ATCC 13525 after 24 hrs by MTT assay. The settings on record: ATCC 13525, 24 h.
The next assay concerns Bacillus subtilis. Put plainly: Antibacterial activity against Bacillus subtilis ATCC 6633 after 24 hrs by MTT assay. To be noted: ATCC 6633, 24 h.
For another assay, the system named is Escherichia coli. Briefly: Antibacterial activity against Escherichia coli ATCC 35218 after 24 hrs by MTT assay. The settings on record: ATCC 35218, 24 h.
The next assay deals with Enterococcus faecalis. Put plainly: microbe, parasite or virus in culture. The settings on record: ATCC 9790, 24 h.

In brackets after ≈: the same amount, converted by molar mass. Bounds are passed on as bounds.

For `COC(=O)Cc1ccccc1OC(=O)Cc1cccc(Cl)c1`, the MIC with Staphylococcus aureus is 3.12 µg/mL (≈ 9.8 µM); against Enterobacter cloacae, 25 µg/mL (≈ 78.4 µM); with Pseudomonas aeruginosa, 12.5 µg/mL (≈ 39.2 µM); against Bacillus subtilis, 3.12 µg/mL (≈ 9.8 µM); against Escherichia coli, > 50 µg/mL; with Enterococcus faecalis it was 12.5 µg/mL (≈ 39.2 µM).
